Results published in ChEMBL document CHEMBL3853262 (Medchemcomm, 2016).
Active and inactive are the calls of the source. No cut-off for these calls is given here.

What was measured:
THP-1 [1] = assay: Proapoptotic activity in human THP1 cells assessed as early apoptotic cells at 25 uM after 7 hrs by annexin V/propidium iodide staining-based capillary cytometric method relative to control; assay type: functional
THP-1 [2] = assay: Proapoptotic activity in human THP1 cells assessed as necrotic cells at 25 uM after 1 hr by annexin V/propidium iodide staining-based capillary cytometric method relative to control; assay type: functional
THP-1 [3] = assay: Proapoptotic activity in human THP1 cells assessed as late apoptotic cells at 25 uM after 7 hrs by annexin V/propidium iodide staining-based capillary cytometric method relative to control; assay type: functional
NTERA-2-cl-D1 [4] = assay: Proapoptotic activity in human NT2/D1 cells assessed as early apoptotic cells at 25 uM after 7 hrs by annexin V/propidium iodide staining-based capillary cytometric method relative to control; assay type: functional
NTERA-2-cl-D1 [5] = assay: Proapoptotic activity in human NT2/D1 cells assessed as early apoptotic cells at 25 uM after 5 hrs by annexin V/propidium iodide staining-based capillary cytometric method relative to control; assay type: functional
NTERA-2-cl-D1 [6] = assay: Induction of apoptosis in human NT2/D1 cells assessed as necrotic cells at 25 uM after 4 hrs in presence of pan caspase inhibitor Z-VAD-fmk by annexin V/propidium iodide staining-based capillary cytometric method (reference value: 0.10%); assay type: functional
BJ = assay: Proapoptotic activity in human BJ cells by annexin V-FITC/propidium iodide staining-based capillary cytometric method; assay type: functional, cell-based
NTERA-2-cl-D1 [7] = assay: Induction of apoptosis in human NT2/D1 cells assessed as viable cells at 25 uM after 4 hrs by annexin V/propidium iodide staining-based capillary cytometric method (reference value: 95.80%); assay type: functional; settings: NTERA-2-cl-D1, 4 h, read-out: Activity
THP-1 [8] = assay: Proapoptotic activity in human THP1 cells assessed as viable cells at 25 uM after 1 hr by annexin V/propidium iodide staining-based capillary cytometric method relative to control; assay type: functional; settings: THP-1, 1 h, read-out: Activity
NTERA-2-cl-D1 [9] = assay: Proapoptotic activity in human NT2/D1 cells assessed as late apoptotic cells at 25 uM after 7 hrs by annexin V/propidium iodide staining-based capillary cytometric method relative to control; assay type: functional
THP-1 [10] = assay: Proapoptotic activity in human THP1 cells assessed as necrotic cells at 25 uM after 7 hrs by annexin V/propidium iodide staining-based capillary cytometric method relative to control; assay type: functional
NTERA-2-cl-D1 [11] = assay: Induction of apoptosis in human NT2/D1 cells assessed as early apoptotic cells at 25 uM after 4 hrs by annexin V/propidium iodide staining-based capillary cytometric method (reference value: 3.40%); assay type: functional
ASPC1 = assay: Proapoptotic activity in human AsPC1 cells by annexin V-FITC/propidium iodide staining-based capillary cytometric method; assay type: functional, cell-based
BXPC-3 = assay: Proapoptotic activity in human BxPC3 cells by annexin V-FITC/propidium iodide staining-based capillary cytometric method; assay type: functional, cell-based
NTERA-2-cl-D1 [12] = assay: Induction of apoptosis in human NT2/D1 cells assessed as viable cells at 25 uM after 4 hrs in presence of pan caspase inhibitor Z-VAD-fmk by annexin V/propidium iodide staining-based capillary cytometric method (reference value: 95.80%); assay type: functional; settings: NTERA-2-cl-D1, 4 h, read-out: Activity
NTERA-2-cl-D1 [13] = assay: Proapoptotic activity in human NT2/D1 cells assessed as early apoptotic cells at 25 uM after 1 hr by annexin V/propidium iodide staining-based capillary cytometric method relative to control; assay type: functional
NTERA-2-cl-D1 [14] = assay: Proapoptotic activity in human NT2/D1 cells assessed as late apoptotic cells at 25 uM after 5 hrs by annexin V/propidium iodide staining-based capillary cytometric method relative to control; assay type: functional
THP-1 [15] = assay: Induction of apoptosis in human THP1 cells assessed as […] cells at 25 uM after 4 hrs in presence of pan caspase inhibitor Z-VAD-fmk by annexin V/propidium iodide staining-based capillary cytometric method (reference value: 96.40%); assay type: functional
NTERA-2-cl-D1 [16] = assay: Proapoptotic activity in human NT2/D1 cells assessed as necrotic cells at 25 uM after 3 hrs by annexin V/propidium iodide staining-based capillary cytometric method relative to control; assay type: functional
THP-1 [17] = assay: Proapoptotic activity in human THP1 cells assessed as viable cells at 25 uM after 5 hrs by annexin V/propidium iodide staining-based capillary cytometric method relative to control; assay type: functional; settings: THP-1, 5 h, read-out: Activity
THP-1 [18] = assay: Induction of apoptosis in human THP1 cells assessed as early apoptotic cells at 25 uM after 4 hrs by annexin V/propidium iodide staining-based capillary cytometric method (reference value: 3.22%); assay type: functional
NTERA-2-cl-D1 [19] = assay: Proapoptotic activity in human NT2/D1 cells assessed as viable cells at 25 uM after 3 hrs by annexin V/propidium iodide staining-based capillary cytometric method relative to control; assay type: functional; settings: NTERA-2-cl-D1, 3 h, read-out: Activity
THP-1 [20] = assay: Induction of apoptosis in human THP1 cells assessed as activation of caspase 8/9 at 25 uM by 7-AAD staining-based capillary cytometric method; assay type: functional, cell-based
NTERA-2-cl-D1 [21] = assay: Induction of apoptosis in human NT2/D1 cells assessed as early apoptotic cells at 25 uM after 4 hrs in presence of pan caspase inhibitor Z-VAD-fmk by annexin V/propidium iodide staining-based capillary cytometric method (reference value: 3.40%); assay type: functional
NTERA-2-cl-D1 [22] = assay: Induction of apoptosis in human NT2/D1 cells assessed as activation of caspase 8/9 at 25 uM by 7-AAD staining-based capillary cytometric method; assay type: functional, cell-based
NTERA-2-cl-D1 [23] = assay: Proapoptotic activity in human NT2/D1 cells assessed as viable cells at 25 uM after 5 hrs by annexin V/propidium iodide staining-based capillary cytometric method relative to control; assay type: functional; settings: NTERA-2-cl-D1, 5 h, read-out: Activity
NTERA-2-cl-D1 [24] = assay: Induction of apoptosis in human NT2/D1 cells assessed as late apoptotic cells at 25 uM after 4 hrs in presence of pan caspase inhibitor Z-VAD-fmk by annexin V/propidium iodide staining-based capillary cytometric method (reference value: 0.70%); assay type: functional
NTERA-2-cl-D1 [25] = assay: Proapoptotic activity in human NT2/D1 cells assessed as late apoptotic cells at 25 uM after 1 hr by annexin V/propidium iodide staining-based capillary cytometric method relative to control; assay type: functional
THP-1 [26] = assay: Induction of apoptosis in human THP1 cells assessed as early apoptotic cells at 25 uM after 4 hrs in presence of pan caspase inhibitor Z-VAD-fmk by annexin V/propidium iodide staining-based capillary cytometric method (reference value: 3.22%); assay type: functional

## CNc1nc(-c2cccc(NC(=O)c3cc4ccccc4[nH]3)c2)c[nH]1.Cl
THP-1 [1]
  Activity: 36.14%
THP-1 [2]
  Activity: 0.2%
THP-1 [3]
  Activity: 45.9%
NTERA-2-cl-D1 [4]
  Activity: 55.66%
NTERA-2-cl-D1 [5]
  Activity: 46.36%
NTERA-2-cl-D1 [6]
  Activity: 0.17%
BJ
  EC50: 21 µM
NTERA-2-cl-D1 [7]
  viability at 25 µM: 70.7%
THP-1 [8]
  viability at 25 µM: 95.7%
NTERA-2-cl-D1 [9]
  Activity: 13.18%
THP-1 [10]
  Activity: 0.2%
NTERA-2-cl-D1 [11]
  Activity: 23.88%
ASPC1
  EC50: 32 µM
BXPC-3
  EC50: 58 µM
NTERA-2-cl-D1 [12]
  viability at 25 µM: 88.8%
NTERA-2-cl-D1 [13]
  Activity: 8.6%
NTERA-2-cl-D1 [14]
  Activity: 6.08%
THP-1 [15]
  Activity: 18.04%
NTERA-2-cl-D1 [16]
  Activity: 0.11%
THP-1 [17]
  viability at 25 µM: 28.6%
THP-1 [18]
  Activity: 4.96%
NTERA-2-cl-D1 [19]
  viability at 25 µM: 73.9%
THP-1 [20]
  Activity: Active
NTERA-2-cl-D1 [21]
  Activity: 8.15%
NTERA-2-cl-D1 [22]
  Activity: Active
NTERA-2-cl-D1 [23]
  viability at 25 µM: 47%
NTERA-2-cl-D1 [24]
  Activity: 2.87%
NTERA-2-cl-D1 [25]
  Activity: 3.59%
THP-1 [26]
  Activity: 64.66%
